Measurements as given in patent US11279708B2, “Amidino- and amino-rocaglates as novel translation inhibitors and anticancer agents” (priority 2019, dated 2022).

Experiments:
NIH/3T3 cells = assay: Sulforhodamine B (SRB) cytotoxicity assay; format: cell-based; conditions: 40 nM, 4 days
Method: In cellula activity of rocaglates. All compounds in the rocaglate collection were assessed for cytotoxic activity towards NIH/3T3 cells as well as the rocaglate-resistant line, eIF4A^em1JP, which harbors an F163L mutation in eIF4A1. This mutation was originally identified following selection for RocA-resistant yeast mutants and F163 was subsequently shown to be critical for stacking with ring C of RocA (2) (FIG. 4). Although eIF4A2 is also a target of rocaglates, eIF4A1 F163L is sufficient to confer resistance to rocaglate-induced translation inhibition and cytotoxicity, likely due to eIF4A1 being the more abundant isoform in NIH/3T3 cells (250-fold higher). […] Lastly, although effective at inhibiting cap-dependent translation in vitro, WGD-57-591 (no activity @ 40 nM) and WGD-57-590 (12% growth inhibition @ 40 nM) performed poorly in this assay.
Sulforhodamine B (SRB) assay. NIH/3T3 cells were seeded at a density of 1000 cells/well in a 96 well format and incubated in presence of each 40 nM compound. After 4 days of culture, cells were washed with PBS, fixed with 50% trichloroacetic (TCA) acid for 1 hour, and then stained with 0.5% sulforhodamine B in 1% acetic acid for 15 min. Plates were then washed 5 times with 1% acetic acid, dried, and the stained wells were resuspended with 10 mM Tris (pH 9) prior to measuring the absorbance at 510 nm using (Spectramax M5, Molecular Devices)
FIGS. 26A-26B. In cellula activity of rocaglates. 26A. Cytotoxicity of rocaglates towards NIH/3T3 (grey circle) and the NIH/3T3 rocaglate-resistant line, eIF4A^em1JP(redtriangle). Cells were exposed to 40 nM compound for 4 days and viability was measured using the SRB assay. n=3±SD. 26B. Rocaglates show different sequence preferences for inhibiting cap-dependent translation in cellula. HEK 293 cells were transfected with 0.5 μg of in vitro synthesized capped (AG)10-FF/HCV/Ren or (UC)10-FF/HCV/Ren mRNA and 1h later exposed to the indicated concentrations of compounds for an additional 6 h, at which time extracts were prepared and luciferase activity measured. n=3 SD.

[1] = tested on: eIF4A-dependent translation; assay: in vitro translation assay, bicistronic FF/HCV/Ren reporter mRNA in Krebs-2 extracts; format: biochemical; conditions: screen at 2 μM compound
Method: Structure-Activity Relationships. With a number of amidino-rocaglates and amino-rocaglates in hand, we evaluated their inhibition of eIF4A-dependent translation using an in vitro assay as depicted in FIG. 14, where a bicistronic reporter mRNA was designed for translation in Krebs-2 extracts. In FIG. 14 the following description applies (a) IC50 was determined from fitted sigmoid curves; […] indicates the concentration of compound that inhibits cap-dependent translation by 50%, which was normalized by cap-independent translation. For its determination, the bicistronic reporter FF/HCV/Ren mRNA was used to produce Firefly luciferase (cap-dependent) and Renilla luciferase (cap-independent) in Krebs-2 extracts in the presence of indicated compounds at various concentrations. In particular, translation of Firefly luciferase (FF) is cap-dependent and depends on eIF4A activity; in contrast, translation of Renilla luciferase (REN) utilizes the HCV internal ribosome entry site (IRES) which functions independently of eIF4A. IC50's were determined by the inhibition of FF relative to REN obtained in the presence of compound relative to vehicle controls and normalized to REN as an internal control. […] In accordance with the eIF4A-RNA-rocaglamide (2) co-crystallographic analysis (FIG. 4), the amide carbonyl of 2 interacts with Gln195 of eIF4A as a H-bond acceptor, while the tertiary hydroxyl of 2 serves as a H-bond donor to an RNA base. […] To further verify the hypothesis, amidino-rocaglates (pKa of N—H˜26.7-30.7 in DMSO, strong H-bond donors) and amino-rocaglates (pKa of N—H˜36 to 44 in DMSO, weak H-bond donors) were next evaluated. […] Conversely, benzyl amidine 9e had IC50=60 nM, whereas the methylene tether may allow conformational adjustment to avoid rigid repulsion in the binding pocket.
The rocaglate collection was also tested in in vitro translation assays using cell-free extracts with a previously described bicistronic mRNA containing the HCV IRES, which is not dependent on eIF4A activity and served as an internal control (FIG. 19C).
In Vitro Translation Assays. In vitro translation assays performed in Krebs-2 cell extracts were supplemented with 5 mM MgCl2, 30 mM Tris-HCl (pH 7.5), 1.5 mM ATP, 0.1 mM GTP, 0.6 mM CTP, 10 mM dipotassium creatine phosphate, 80 μg/mL creatine kinase, and 0.04 mM amino acids. The specified mRNA reporters were added to each reaction at a final concentration of 10 ng/μL. The translation reactions were incubated with or without compound for 60 minutes at 30° C. prior to the measurement of luciferase activities.
FIGS. 19A-19C. Rocaglate activity profiling. 19A. Assessing eIF4A1:poly r(AG)8 (SEQ ID NO: 2) RNA binding by FP in the presence of 10 μM rocaglate. Values are expressed relative to vehicle controls and data is rank ordered. n=3±SD. 19B. The change in polarization obtained with eIF4A1:poly r(AG)8 (SEQ ID NO: 2) and eIF4A2:poly r(AG)8 (SEQ ID NO: 2) RNA. Pearson r=0.814; p<0.0001. 19C. Inhibition of cap-dependent translation by rocaglates was measured using the indicated mRNA bicistronic reporter (4 ng/ul) in Krebs-2 extracts at a final compound concentration of 2 μM. n=3±SD.
FIG. 35A-35E are plots showing dose-response curve of FF-HCV-Ren mRNA translation in Krebs extracts with IC50s shown for inhibition of cap-dependent protein synthesis. Values are plotted relative to DMSO controls. n=2 technical replicates performed in duplicate.

[2] = tested on: MDA-MB-231 breast cancer cells; assay: SRB cell viability assay; format: cell-based; conditions: MDA-MB-231, SRB assay; read-out: IC50, cytotoxicity
Excerpt: Translation Inhibition by Amidino-Rocaglates Induces Cytotoxicity. We next evaluated amidino-rocaglates in an SRB cell viability assay using MDA-MB-231 breast cancer cells for cellular readout of translation inhibition (FIG. 16). In particular, (−)-9b, (−)-9aa, and (+)-9aa were compared with rocaglate hydroxamate (−)-23. […] The inspiring high-potency of amidino-rocaglates underscores their utility as promising agents for anticancer treatment combined with the appropriate formulation and drug-delivery strategies. […] Meanwhile, amide carbonyls of 9z and 9aa served as H-bond acceptors likely improving interactions with Gln195 of eIF4A, although this awaits structural confirmation. […] Our studies further illustrate the power of chemical synthesis enabling structural and biological improvement of complex natural products using targeted modifications. Additional biological studies of amidino-, amino-rocaglates, and related compounds including RNA binding studies are currently in progress and will be reported in due course.

SMILES | rank among the top 15 cytotoxic rocaglates (NIH/3T3 cells) | inhibition of cap-dependent translation in vitro (in words) [1] | IC50 [2]
COC(=O)[C@@H]1[C@@H](c2ccccc2)[C@]2(c3ccc(OC)cc3)Oc3cc(OC)cc(OC)c3[C@@]23NC(C2CC2)=N[C@@]13O [9n] | 15th | comparable potency to SDS-1-021 | –
COC(=O)[C@@H]1[C@@H](c2ccccc2)[C@]2(c3ccc(OC)cc3)Oc3cc(OC)cc(OC)c3[C@@]23N=C(C)N[C@@]13O [(−)-9b] | – | – | 3.5 nM
